Measured values taken from ChEMBL document CHEMBL5634123, “Design and synthesis of 1H-benzo[d]imidazole selective HDAC6 inhibitors with potential therapy for multiple myeloma” (Eur J Med Chem, 2023).

What was measured:
[1] = Tmax in mouse at 10 mg/kg, po; assay type: ADME, organism-based; conditions: in vivo
RPMI-8226 [2] = assay: Induction of cell cycle arrest at S phase in human RPMI-8226 cells at 2.5 uM incubated for 24 hrs by PI staining based flow cytometry (reference value: 58.5 %); assay type: functional
RPMI-8226 [3] = assay: Induction of cell cycle arrest at G1 phase in human RPMI-8226 cells at 2.5 uM incubated for 24 hrs by PI staining based flow cytometry (reference value: 19.2 %); assay type: functional
[4] = Clearance in mouse at 1 mg/kg, iv; assay type: ADME, organism-based; conditions: in vivo
[5] = Half life in mouse at 1 mg/kg, iv; assay type: ADME, organism-based; conditions: in vivo
[6] = Toxicity in Balb/c nude mouse xenografted with human RPMI-8226 cells assessed as body weight loss at 40 mg/kg, po qd for 21 days administered consecutively; assay type: organism-based; conditions: in vivo, 504 h, time 21 day
RPMI-8226 [7] = assay: Antitumor activity against human RPMI-8226 cells xenografted in Balb/c nude mouse assessed as ratio of tumor to control at 40 mg/kg, po qd for 21 days administered consecutively relative to control; assay type: functional; conditions: time 21 day
RPMI-8226 [8] = assay: Induction of apoptosis in human RPMI-8226 cells assessed as early apoptotic cells at 2.5 uM incubated for 24 hrs by Annexin V-FITC/PI staining based flow cytometry (reference value: 5.34 %); assay type: functional
RPMI-8226 [9] = assay: Induction of cell cycle arrest at G2 phase in human RPMI-8226 cells at 2.5 uM incubated for 24 hrs by PI staining based flow cytometry (reference value: 18.3 %); assay type: functional
RPMI-8226 [10] = assay: Induction of apoptosis in human RPMI-8226 cells assessed as viable cells at 2.5 uM incubated for 24 hrs by Annexin V-FITC/PI staining based flow cytometry (reference value: 90.98 %); assay type: functional; conditions: read-out: Activity
RPMI-8226 [11] = assay: Induction of apoptosis in human RPMI-8226 cells assessed as necrotic cells at 2.5 uM incubated for 24 hrs by Annexin V-FITC/PI staining based flow cytometry (reference value: 0.90 %); assay type: functional
[12] = Volume of distribution at steady state in mouse at 1 mg/kg, iv; assay type: ADME, organism-based; conditions: in vivo, read-out: Vdss
RPMI-8226 [13] = assay: Induction of apoptosis in human RPMI-8226 cells assessed as late apoptotic cells at 2.5 uM incubated for 24 hrs by Annexin V-FITC/PI staining based flow cytometry (reference value: 2.78 %); assay type: functional
[14] = AUC (0 to t) in mouse at 1 mg/kg, iv; assay type: ADME, organism-based; conditions: in vivo
[15] = Cmax in mouse at 10 mg/kg, po; assay type: ADME, organism-based; conditions: in vivo
[16] = Oral bioavailability in mouse at 10 mg/kg; assay type: ADME, organism-based; conditions: in vivo
HCT-116 = assay: Cytotoxicity against human HCT-116 cells assessed as inhibition of cell viability incubated for 24 hrs by CCK8 assay; assay type: functional, cell-based; conditions: HCT-116, 24 h
MDA-MB-468 = assay: cells; conditions: Homo sapiens, MDA-MB-468, 24 h
[17] = molecular target: T1, Protein deacetylase HDAC6 (Homo sapiens, UniProt Q9UBN7); assay: Inhibition of HDAC6 (unknown origin) preincubated for 10 mins followed by substrate addition measured for 1 hr by fluorescence based assay
T1 sequence (Q9UBN7 whole entry): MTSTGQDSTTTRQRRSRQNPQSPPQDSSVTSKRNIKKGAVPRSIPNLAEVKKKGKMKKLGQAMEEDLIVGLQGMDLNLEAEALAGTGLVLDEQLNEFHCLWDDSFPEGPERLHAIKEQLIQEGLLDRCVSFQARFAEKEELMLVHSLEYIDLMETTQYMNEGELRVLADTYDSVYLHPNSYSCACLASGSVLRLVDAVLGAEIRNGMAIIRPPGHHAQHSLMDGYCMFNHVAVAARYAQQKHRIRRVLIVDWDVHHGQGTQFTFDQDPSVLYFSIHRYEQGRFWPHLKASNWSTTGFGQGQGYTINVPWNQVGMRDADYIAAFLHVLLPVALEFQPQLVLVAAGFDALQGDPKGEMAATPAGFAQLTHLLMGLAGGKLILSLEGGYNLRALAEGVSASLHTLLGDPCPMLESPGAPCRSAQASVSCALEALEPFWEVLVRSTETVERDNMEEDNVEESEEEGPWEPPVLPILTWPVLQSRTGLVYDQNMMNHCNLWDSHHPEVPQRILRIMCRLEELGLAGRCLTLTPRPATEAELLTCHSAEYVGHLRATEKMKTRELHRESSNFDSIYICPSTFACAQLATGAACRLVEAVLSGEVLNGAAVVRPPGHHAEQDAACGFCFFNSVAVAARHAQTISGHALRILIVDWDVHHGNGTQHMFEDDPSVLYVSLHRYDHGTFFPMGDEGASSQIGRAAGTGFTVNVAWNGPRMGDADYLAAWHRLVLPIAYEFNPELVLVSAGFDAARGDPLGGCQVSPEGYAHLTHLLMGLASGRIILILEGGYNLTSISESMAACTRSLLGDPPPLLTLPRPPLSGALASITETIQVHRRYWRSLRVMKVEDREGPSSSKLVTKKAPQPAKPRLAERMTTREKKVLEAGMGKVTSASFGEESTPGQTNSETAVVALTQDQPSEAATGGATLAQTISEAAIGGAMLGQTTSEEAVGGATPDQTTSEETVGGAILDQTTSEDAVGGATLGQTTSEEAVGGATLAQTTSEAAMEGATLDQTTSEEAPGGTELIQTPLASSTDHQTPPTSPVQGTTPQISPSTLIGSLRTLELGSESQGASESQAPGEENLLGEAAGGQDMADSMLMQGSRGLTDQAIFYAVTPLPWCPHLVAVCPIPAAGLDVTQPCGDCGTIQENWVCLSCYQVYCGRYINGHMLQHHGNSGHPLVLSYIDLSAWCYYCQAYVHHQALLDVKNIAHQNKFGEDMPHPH

SGC-7901 = assay: Cytotoxicity against human SGC-7901 cells assessed as inhibition of cell viability incubated for 24 hrs by CCK8 assay; assay type: functional, cell-based; conditions: SGC-7901, 24 h
RPMI-8226 [18] = assay: cells; conditions: Homo sapiens, RPMI-8226, 24 h
HCCLM3 = assay: Cytotoxicity against human HCCLM3 cells assessed as inhibition of cell viability incubated for 24 hrs by CCK8 assay; assay type: functional, cell-based; conditions: HCCLM3, 24 h
Histone deacetylase 1 = Histone deacetylase 1 (Homo sapiens, UniProt Q13547); assay: Inhibition of HDAC1 (unknown origin) preincubated for 10 mins followed by substrate addition measured for 1 hr by fluorescence based assay
[19] = molecular target: T2, Protein deacetylase HDAC6 (Homo sapiens) (UniProt Q9UBN7); assay: Inhibition of HDAC6 (unknown origin) at 1 uM preincubated for 10 mins followed by substrate addition measured for 1 hr by fluorescence based assay relative to control; conditions: time 70.0 min
T2 sequence (whole entry): T1 sequence (Q9UBN7 whole entry)

Histone deacetylase 1, sequence (Q13547 whole entry): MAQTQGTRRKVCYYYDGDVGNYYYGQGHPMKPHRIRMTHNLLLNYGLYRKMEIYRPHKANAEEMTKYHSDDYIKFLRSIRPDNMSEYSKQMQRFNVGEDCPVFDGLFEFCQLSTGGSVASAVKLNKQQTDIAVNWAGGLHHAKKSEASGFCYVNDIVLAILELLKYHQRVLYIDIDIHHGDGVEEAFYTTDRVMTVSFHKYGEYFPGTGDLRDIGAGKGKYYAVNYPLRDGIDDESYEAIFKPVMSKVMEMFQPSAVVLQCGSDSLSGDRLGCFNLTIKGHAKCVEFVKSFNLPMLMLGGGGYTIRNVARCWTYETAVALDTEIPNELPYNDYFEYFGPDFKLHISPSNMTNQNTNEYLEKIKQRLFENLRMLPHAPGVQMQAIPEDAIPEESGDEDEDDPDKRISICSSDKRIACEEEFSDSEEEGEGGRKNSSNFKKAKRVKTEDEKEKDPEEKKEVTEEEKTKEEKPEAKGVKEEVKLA

| Compound | IC50 (MDA-MB-468) [nM] | IC50 [17] [nM] | IC50 (RPMI-8226 [18]) [nM] | IC50 (HCT-116) [nM] | IC50 (SGC-7901) [nM] | IC50 (HCCLM3) [nM] | also measured |
| --- | --- | --- | --- | --- | --- | --- | --- |
| O=C(CCCCCCNC(=O)c1cnc(N(c2ccccc2)c2ccccc2)nc1)NO [RICOLINOSTAT] | – | – | – | – | – | – | Tmax [1]: 15 min; Activity (RPMI-8226 [2]): 40.8%; Activity (RPMI-8226 [3]): 28.1%; clearance [4]: 29.4 mL/min/kg; half-life [5]: 22.3 min; Activity [6]: Non-Toxic; T/C (RPMI-8226 [7]): 39.9%; Activity (RPMI-8226 [8]): 19.84%; Activity (RPMI-8226 [9]): 24.5%; viability at 2.5 µM (RPMI-8226 [10]): 75.3%; Activity (RPMI-8226 [11]): 0.56%; Vd [12]: 0.525 L/kg; Activity (RPMI-8226 [13]): 4.33%; AUC(0-t) [14]: 566 ng·h/mL; Cmax [15]: 333 ng/mL; bioavailability [16]: 6% |
| CCN(Cc1nc2cc(C(=O)NO)ccc2n1C)c1ccccc1 | > 50000 | 10.3 | 1380 | 500 | 4200 | 4510 | – |
| Cn1c(CN2CCC3(CC2)OCCO3)nc2cc(C(=O)NO)ccc21 | – | 36.4 | – | – | – | – | – |
| CCCN(Cc1nc2cc(C(=O)NO)ccc2n1C)c1ccccc1 | > 50000 | 12.8 | 2390 | 2060 | 8690 | 4800 | – |
| C[C@@H](NCc1ccccc1)c1nc2cc(C(=O)NO)ccc2n1C | 6010 | 5.83 | 709 | 508 | 1650 | 1450 | IC50 (Histone deacetylase 1): 841 nM |
| CCCCN(Cc1nc2cc(C(=O)NO)ccc2n1C)c1cccc(F)c1 | 10500 | 12.8 | 1330 | 3580 | 6530 | 4430 | – |
| O=C(NO)c1ccc2c(c1)nc(CNc1ccccc1)n2C1CC1 | – | 898 | – | – | – | – | – |
| O=C(NO)c1ccc2nc(CCc3ccccc3)[nH]c2c1 | – | 69.2 | – | – | – | – | – |
| O=C(NO)c1ccc2c(c1)ncn2CCc1ccccc1 | – | – | – | – | – | – | inhibition [19]: 70.3% |
| O=C(NO)c1ccc2ncn(CCc3ccccc3)c2c1 | – | – | – | – | – | – | inhibition [19]: 23.4% |
| CCCCN(Cc1nc2cc(C(=O)NO)ccc2n1C)c1ccccc1 | 8170 | 9.55 | 934 | 3120 | 2830 | 3490 | IC50 (Histone deacetylase 1): 634 nM |
| CCn1c(CNc2ccccc2)nc2cc(C(=O)NO)ccc21 | – | 853 | – | – | – | – | – |
| Cn1c([C@H](Cc2ccccc2)NCc2ccccc2)nc2cc(C(=O)NO)ccc21 | 44000 | 7.58 | 2040 | 5520 | 40800 | > 50000 | – |
| C[C@H](NCc1ccccc1)c1nc2cc(C(=O)NO)ccc2n1C | 9160 | 9.22 | 1050 | 6420 | 2400 | 2420 | – |
| CC(C)n1c(CNc2ccccc2)nc2cc(C(=O)NO)ccc21 | – | 1510 | – | – | – | – | – |
| Cn1c(CNc2ccccc2)nc2ccc(C(=O)NO)cc21 | – | – | – | – | – | – | inhibition [19]: 64.1% |
| Cn1c(CN2CCCCC2)nc2cc(C(=O)NO)ccc21 | – | 34.2 | – | – | – | – | – |
| O=C(NO)c1ccc2nc[nH]c2c1 | – | 4350 | – | – | – | – | IC50 (Histone deacetylase 1): > 10000 nM |

More lines, main results first:

| IC50 (MDA-MB-468) [nM] | IC50 [17] [nM] | IC50 (RPMI-8226 [18]) [nM] | Compound | IC50 (HCT-116) [nM] | IC50 (SGC-7901) [nM] | IC50 (HCCLM3) [nM] | also measured |
| --- | --- | --- | --- | --- | --- | --- | --- |
| – | 28.1 | – | Cn1c(CSc2ccccc2)nc2cc(C(=O)NO)ccc21 | – | – | – | – |
| – | 18.4 | – | Cn1c(CNc2ccc(F)cc2)nc2cc(C(=O)NO)ccc21 | – | – | – | – |
| – | 19.4 | – | Cc1ccc(NCc2nc3cc(C(=O)NO)ccc3n2C)cc1 | – | – | – | – |
| 5530 | 15.8 | 2190 | Cc1ccccc1NCc1nc2cc(C(=O)NO)ccc2n1C | 6300 | 10800 | 15000 | – |
| 7960 | 12.6 | 2520 | Cn1c(COc2ccccc2)nc2cc(C(=O)NO)ccc21 | 2260 | 9810 | 8720 | – |
| 9600 | 15.8 | 2060 | Cn1c(CNc2ccccc2)nc2cc(C(=O)NO)ccc21 | 17200 | > 50000 | 41500 | – |
| 6730 | 5.87 | 320 | Cn1c(CNc2cccc3ccccc23)nc2cc(C(=O)NO)ccc21 | 9360 | 518 | 781 | IC50 (Histone deacetylase 1): 834 nM |
| 8580 | 13.8 | 2470 | Cn1c(CNc2ccccc2F)nc2cc(C(=O)NO)ccc21 | > 50000 | 5810 | 14400 | – |
| 4930 | 8.91 | 661 | CN(Cc1nc2cc(C(=O)NO)ccc2n1C)c1ccccc1 | 9950 | 3690 | 6690 | IC50 (Histone deacetylase 1): 567 nM |
| > 50000 | 11.8 | 1620 | Cc1cccc(NCc2nc3cc(C(=O)NO)ccc3n2C)c1 | 16000 | 27900 | > 50000 | – |
| 3760 | 6.78 | 1870 | Cn1c(CNc2cccc(F)c2)nc2cc(C(=O)NO)ccc21 | 1430 | 13600 | 5180 | – |
| 10800 | 14.4 | 349 | Cn1c(CNCc2ccccc2)nc2cc(C(=O)NO)ccc21 | 1330 | 5100 | 2620 | IC50 (Histone deacetylase 1): 976 nM |
